From US20050031715A1, “Natural preservative comprising heated garlic extract and method for preparing thereof” (SEJONG UNIVERSITY, priority 2003, published 2005)

How the values were obtained:
Format in all cases: cell-based
[1] = test system: Candida utilis ATCC 42416; experiment: Antimicrobial activity (MIC) over storage time at 37° C.; conditions: stored at 37° C., 30 days, heated extract: 121° C. for 120 min
Protocol: (§1) In order to compare the antibacterial activity and the antifungal activity of the garlic extract of Example 1 prepared by heating at 121° C., according to the heating time, MIC (minimum inhibitory concentration) was measured for the samples of the heated garlic extract. The MIC represents minimum concentration of material to inhibit the growth of certain type of microorganism. It is understood that the lower the MIC of a material, the higher the antimicrobial activity of the material. The inhibition of microbial growth was measured by viable count method based on Spiral Autoplate System of Spiral Biotech Inc. Three separate experiments were carried out for each sample and the highest value was taken as the MIC of the sample.
Antimicrobial activity of the garlic extract prepared by heating at 121° C. for 120 min in Example 1, the fresh garlic extract and the AITC solution was measured for Candida utilis ATCC 42416, over storage time. Candida utilis ATCC 42416 used in this Test Example was kindly provided from Dr. Henry P. Fleming at the Food Fermentation Laboratory of the North Carolina State University in USA. […] From the first day to the 30th day of the storage, the MIC was measured everyday or every two days using the viable count method described in Test Example 1.

[2] = test system: Candida albicans KCTC 7965; experiment: MIC, viable count method; conditions: 48 hrs, heated garlic: 121° C. for 45 min
Protocol: as §1
(§2) Antimicrobial activity was measured for the garlic extract heated at 121° C. for 45 min of Example 1, the fresh garlic extract and the AITC solution which had been prepared in Comparative Examples. Conditions for the viable count method, the medium and initial number of microorganisms inoculated were the same as those described in the above Test Examples. The MIC was measured at 24 hrs or 48 hrs after incubating the bacteria or the yeasts, respectively.
(§3) Staphylococcus aureus B33, Escherichia coli B34, Enterobacter aerogenes B146, Leuconostoc mesenteroides LA10, Pediococcus pentosaceus LA3, Lactobacillus plantarum LA97, Pichia membranifaciens Y20, Saccharomyces cerevisiae ATCC 4126 and Candida utilis ATCC 42416 used in this Test Example were kindly provided from Dr. Henry P. Fleming at the Food Fermentation Laboratory of the North Carolina State University in USA. Candida albicans HY1 was separated from an infant with oral candidiasis. In addition, Candida albicans KCTC 7121 and 7965 were purchased from Korean Collection for Type Cultures (KCTC) and Zygosaccharomyces bisporus KCCM 50168, Zygosaccharomyces rouxii (soya) KCCM 11300, Zygosaccharomyces rouxii KCCM 11303, Zygosaccharomyces rouxii (sake) KCCM 50523 and Zygosaccharomyces rouxii (gracilis) KCCM 50546 were obtained from KCCM (Korean Culture Center of Microorganisms).

[3] = test system: Pichia membranefaciens Y20; experiment: MIC, viable count method; conditions: 48 hrs, heated garlic: 121° C. for 45 min
Protocol: as §1, §2, §3

[4] = test system: Zygosaccharomyces rouxii KCCM 50523; experiment: MIC, viable count method; conditions: 48 hrs, heated garlic: 121° C. for 45 min
Protocol: as §1, §2, §3

[5] = test system: Zygosaccharomyces rouxii KCCM 11300; experiment: MIC, viable count method; conditions: 48 hrs, heated garlic: 121° C. for 45 min
Protocol: as §1, §2, §3

[6] = test system: Pediococcus pentosaceus LA3; experiment: MIC, viable count method; conditions: 24 hrs, heated garlic: 121° C. for 45 min
Protocol: as §1, §2, §3

[7] = test system: Candida albicans KCTC 7121; experiment: MIC, viable count method; conditions: 48 hrs, heated garlic: 121° C. for 45 min
Protocol: as §1, §2, §3

[8] = test system: Leuconostoc mesenteroides LA10; experiment: MIC, viable count method; conditions: 24 hrs, heated garlic: 121° C. for 45 min
Protocol: as §1, §2, §3

[9] = test system: Zygosaccharomyces bisporus KCCM 50168; experiment: MIC, viable count method; conditions: 48 hrs, heated garlic: 121° C. for 45 min
Protocol: as §1, §2, §3

[10] = test system: Zygosaccharomyces rouxii KCCM 11303; experiment: MIC, viable count method; conditions: 48 hrs, heated garlic: 121° C. for 45 min
Protocol: as §1, §2, §3

[11] = test system: Zygosaccharomyces rouxii KCCM 50546; experiment: MIC, viable count method; conditions: 48 hrs, heated garlic: 121° C. for 45 min
Protocol: as §1, §2, §3

[12] = test system: Candida albicans (Clinical); experiment: MIC, viable count method; conditions: 48 hrs, heated garlic: 121° C. for 45 min
Protocol: as §1, §2, §3

[13] = test system: Staphylococcus aureus B33; experiment: MIC, viable count method; conditions: 24 hrs, heated garlic: 121° C. for 45 min
Protocol: as §1, §2, §3

[14] = test system: Candida utilis ATCC 42416; experiment: MIC, viable count method; conditions: 48 hrs, heated garlic: 121° C. for 45 min
Protocol: as §1, §2, §3

Escherichia coli B34 = experiment: MIC, viable count method; conditions: 24 hrs, heated garlic: 121° C. for 45 min
Protocol: as §1, §2, §3

[15] = test system: Enterobacter aerogenes B146; experiment: MIC, viable count method; conditions: 24 hrs, heated garlic: 121° C. for 45 min
Protocol: as §1, §2, §3

[16] = test system: Lactobacillus plantarum LA97; experiment: MIC, viable count method; conditions: 24 hrs, heated garlic: 121° C. for 45 min
Protocol: as §1, §2, §3

[17] = test system: Saccharomyces cerevisiae ATCC 4126; experiment: MIC, viable count method; conditions: 48 hrs, heated garlic: 121° C. for 45 min
Protocol: as §1, §2, §3

[18] = test system: Candida utilis ATCC 42416; experiment: Antimicrobial activity (log CFU/Ml) over pH condition; conditions: 30° C., 24 hrs
Protocol: Antimicrobial activity of the garlic extract heated at 121° C. for 120 min in Example 1 was measured for Candida utilis ATCC 42416, under various pH conditions. […] For a control, YMPGB medium without comprising any preservative was used. Candida utilis ATCC 42416 used in this Test Example was kindly provided from Dr. Henry P. Fleming at the Food Fermentation Laboratory of the North Carolina State University in USA. […] Then, Candida utilis ATCC 42416 was inoculated with an initial number of 2.1-2.3×10^5 CFU/mL and subsequently incubated at 30° C. for 24 hrs. After completing the incubation, the value of log CFU/Ml was measured by using the viable count method described above.

C=CCN=C=S [AITC solution, allyl isothiocyanate]
stability of antifungal activity over storage time [1]: very unstable | MIC [2]: 0.0004 ± 0.0001 volume % | MIC [3]: 0.0001 ± 0 volume % | MIC [4]: 0.0005 ± 0.0001 volume % | MIC [5]: 0.0002 ± 0 volume % | MIC [6]: 0.02 ± 0.0012 volume % | MIC [7]: 0.0003 ± 0.0001 volume % | MIC [8]: 0.04 ± 0.0023 volume % | MIC [9]: 0.0002 ± 0 volume % | MIC [10]: 0.0004 ± 0.0001 volume % | MIC [11]: 0.0004 ± 0.0001 volume % | MIC [12]: 0.0003 ± 0 volume % | MIC [13]: 0.015 ± 0.0006 volume % | MIC [14]: 0.0004 ± 0.0001 volume % | MIC (Escherichia coli B34): 0.01 ± 0.0006 volume % | MIC [15]: 0.02 ± 0.002 volume % | MIC [16]: 0.02 ± 0 volume % | MIC [17]: 0.0002 ± 0.0001 volume %

C/C=C/C=C/C(=O)[O-].[K+] [potassium sorbate]
antimicrobial activity, dependence on pH ([18]; pH 4 to 9, heated garlic extract (121° C., 120 min) 0.5 volume %, potassium sorbate 0.1 weight %): significantly affected by pH | antimicrobial activity at pH 5 ([18]; pH 5, 0.1 weight %): high | antimicrobial activity at pH 6 ([18]; pH 6, 0.1 weight %): dropped to almost zero
